Values quoted from earlier work in patent US20030031589A1, “Control of gaseous sterilisation” (priority 2002, published 2003).
Read-outs that look alike come from different tables or passages of the source.

Experiments:
[1] = high relative humidity
[2] = system: spores
[3] = system: bacillus subtilis; conditions: aqueous solutions; 'D' values depend on concentration and temperature

For `C=O` [formalin vapour, formaldehyde], the “effectiveness of vapour vs relative humidity” value [1] is given as “more effective at high relative humidity”.
In the case of `CC(=O)OO` [Peracetic vapour, peracetic acid], the effectiveness of vapour ([2]; RH of 20%) is listed as “ineffective” and the effectiveness of vapour ([2]; RH of 80%) is listed as “effective”.
For `OO` [hydrogen peroxide], the sporicidal activity [3] is listed as “sporicidal”.
